From patent US20230286956A1 (DUKSUNG WOMEN'S UNIVERSITY INDUSTRY-ACADEMIC COOPERATION …, priority 2020, published 2023)

What was measured:
[1] = system: wild-type red mold strain GZ3639; experiment: Inhibition of spore germination / reactive oxygen species generation through NOX enzyme inhibition in red mold; assay type: cell-based; settings: 24 h, read-out: IC50 (µM), compound concentration at which the spore germination inhibition rate was 50%
Method: When NADPH oxidase (NOX), which is involved in the generation of reactive oxygen species in red mold, is inhibited, normal mycelial growth is inhibited, abnormal form of monocyclic conidia is formed, and germination is inhibited. The abnormal phenotype caused by the reduction of reactive oxygen species in red mold can be easily observed under an optical microscope. Through this, the ability to inhibit generation of reactive oxygen species through NOX inhibition was evaluated.
Specifically, for the evaluation of compound activity, 0.1 mM of the compound was added to a minimum medium (MM20) spore suspension diluted to ⅕. Spores ([…]) of wild-type red mold strain GZ3639 were inoculated into the medium and cultured at 25° C. for 24 h, followed by microscopic observation. Compounds having a germination inhibition rate and microcycle conidiation to be 50% or more of those in normal germination were selected, and their activities were evaluated at concentrations of 50 µM, 25 µM, and 10 µM. At this time, the activity of substances having a germination inhibition rate of 95% at 10 µM was further evaluated at concentrations of 5 µM, 1 µM, 0.5 µM, and 0.1 µM. Based on the result of this evaluation, the compound concentration (inhibitory concentration 50%, IC50) at which the spore germination inhibition rate was 50% was determined.

in vivo = experiment: in vivo; set-up: species or system SD rats; settings: SD, rat, po
Method: The bioavailability (BA) and pharmacokinetic properties of the compounds of the present invention were evaluated in an animal model. The compounds were administered to 8-week-old SD rats (300 to 350 g) at a dose of 2 to 5 mg/kg through oral and intravenous administration routes. After administration, blood was collected at regular time intervals and the time course of blood concentration was analyzed.

[2] = system: substantia nigra dopaminergic neurons; experiment: Inhibition of dopaminergic nerve cell death in MPTP animal model of Parkinson's disease (tyrosine hydroxylase immunostaining); assay type: in vivo, C57B16/J mice; settings: Evaluations 3 and 4: intraperitoneal 5 mg/kg, 1 week before and after MPTP
Method: The dopaminergic neuronal cell protecting effect of the compound of the present invention was evaluated in an animal model of Parkinson’s disease. The animal model used was 7-week-old C57B16/J mice (23 to 25 g), to which MPTP (15 mg/kg) was administered 4 times at 1.5 hour intervals. For 1 to 2 days after administration, behavior was noticeably slowed and gradually recovered. In 1 week after MPTP administration, behavior was almost normalized to a level similar to that of normal mice.
In order to evaluate the efficacy of the compounds of the present invention, Compounds 1aaa (Compound 1), lace (Compound 27), 1ahe (Compound 44) and 1aje (Compound 62) were each administered at a dose of 5 mg/kg for 1 week, then MPTP (15 mg/kg x 4 times) was injected. These compounds were additionally administered for 1 week, and then dopamine innervation in the substantia nigra region was analyzed through immunostaining.
Specifically, selegiline, 1aaa, lace, 1ahe, 1aje, and apocynin were administered at a dose of 5 mg/kg for 7 days, then MPTP (15 mg/kg x 4 times) was administered to induce damage to dopaminergic neurons. After 7 days of additional administration of the compounds at the same dose, the animals were sacrificed. Immunostaining was performed using tyrosine hydroxylase antibody to measure the survival rate of substantia nigra dopaminergic neurons. After immunostaining, the number of surviving dopaminergic neurons was analyzed. The results are illustrated in FIG. 8.
In order to evaluate the efficacy of the compounds of the present invention, Compounds 1abv (Compound 22), 1abw (Compound 23), and 1ahs (Compound 52) were each intraperitoneally administered at a dose of 5 mg/kg for 1 week or orally administered at a dose of 50 mg/kg, then MPTP (15 mg/kg x 4 times) was injected. These compounds were additionally administered for 1 week, and then dopamine innervation in the substantia nigra region was analyzed through immunostaining. The results are illustrated in FIG. 9.
(§1) In order to evaluate the dopaminergic neuroprotective effect of the compounds of the present invention, Compounds 1aja (Compound 59) and 1abk (Compound 17) were each intraperitoneally administered at a dose of 5 mg/kg for 1 week, then MPTP (15 mg/kg x 4 times) was injected. These compounds were additionally administered for 1 week. After immunostaining using brain slices from each group, surviving dopaminergic neurons were photographed under a microscope and analyzed. The results are illustrated in FIG. 10.
as §1, with “1ajs” for “1aja”, “63), 1ajy (Compound 67),” for “59)”, “1aqj” for “1abk”, “85)” for “17)”, “11.” for “10.”

[3] = Single acute toxicity evaluation 2 (2000 mg/kg oral); assay type: in vivo, ICR mice
Method: Acute toxicity properties after single administration of the compounds of the present invention were evaluated in an animal model.

SMILES: CN1C(=[Se])N(c2ccccc2)C(=O)/C1=C\c1ccc(O)cc1O [Compound 1, 5-(2,4-dihydroxybenzylidene)-1-methyl-3-phenyl-2-selenoxoimidazolidine-4-on]
- IC50 [1]: 20 µM
- bioavailability (in vivo): 13%

SMILES: Cc1ccc(N2C(=O)C(=Cc3ccc(N4CCCC4)cc3)N(C)C2=[Se])cc1 [Compound 1abk, 1-methyl-5-(4-pyrrolidine-1-yl)benzylidene-2-selenoxo-3-(4-tolyl)imidazolidine-4-on]
- survival rate of dopaminergic neurons, of that in the control group [2]: 66%

SMILES: CN1C(=[Se])N(CCc2ccccc2)C(=O)C1=Cc1ccc(N2CCOCC2)cc1 [Compound 1ahs]
- change in body weight ([3]; day 0): 100
- change in body weight ([3]; day 2): 97.6
- change in body weight ([3]; day 4): 100.0
- change in body weight ([3]; day 8): 103.8
- change in body weight ([3]; day 10): 104.5
- change in body weight ([3]; day 14): 105.0

SMILES: CCCCCCN1C(=O)C(=Cc2ccc(O)cc2O)N(C)C1=[Se] [Compound 1aja]
- survival rate of dopaminergic neurons, of that in the control group [2]: 76%
- change in body weight ([3]; day 0): 100
- change in body weight ([3]; day 2): 95.6
- change in body weight ([3]; day 4): 102.8
- change in body weight ([3]; day 8): 105.8
- change in body weight ([3]; day 10): 107.8
- change in body weight ([3]; day 14): 107.6

SMILES: CN1C(=[Se])N(CCCN2CCOCC2)C(=O)C1=Cc1ccc(Cl)cc1 [Compound 1aqj]
- survival rate of dopaminergic neurons, of that in the control group [2]: 75.1%
- change in body weight ([3]; day 0): 100
- change in body weight ([3]; day 2): 94.6
- change in body weight ([3]; day 4): 99.8
- change in body weight ([3]; day 8): 104.8
- change in body weight ([3]; day 10): 105.9
- change in body weight ([3]; day 14): 106.6

SMILES: Cc1ccc(N2C(=O)/C(=C\c3ccc(N4CCCCC4)cc3)N(C)C2=[Se])cc1 [Compound 15, 1-methyl-5-(4-piperidine-1-yl)benzylidene-3-(4-tolyl)-2-selenoxoimidazolidine-4-on]
- IC50 [1]: 11 µM
- bioavailability (in vivo): 11%

SMILES: Cc1ccc(N2C(=O)/C(=C\c3ccc(N4CCN(CCO)CC4)cc3)N(C)C2=[Se])cc1 [Compound 21, 5-(4-(4-(2-hydroxyethyl)piperazine-1-yl)benzylidene)-1-methyl-2-selenoxo-3-(4-tolyl)imidazoline-4-on]
- bioavailability (in vivo): 11%

SMILES: CN1C(=[Se])N(C2CCCC2)C(=O)/C1=C\c1ccc(N(C)C)cc1 [Compound 70, 3-cyclopentyl-5-(4-(dimethylamino)benzylidene)-1-methyl-2-selenoxoimidazolidine-4-on]
- IC50 [1]: 26 µM

SMILES: CN1C(=[Se])N(C2CCCC2)C(=O)/C1=C\c1ccc(O)c(O)c1 [Compound 71, 3-cyclopentyl-5-(3,4-dihydroxybenzylidene)-1-methyl-2-selenoxoimidazolidine-4-on]
- IC50 [1]: 26 µM

SMILES: CN1C(=[Se])N(c2ccc(F)cc2)C(=O)/C1=C\c1ccc(N(C)C)cc1 [Compound 75, 5-(4-(dimethylamino)benzylidene)-3-(4-fluorophenyl)-1-methyl-2-selenoxoimidazolidine-4-on]
- IC50 [1]: 23 µM

SMILES: CN1C(=[Se])N(CCCN2CCOCC2)C(=O)/C1=C\c1ccc(Cl)cc1 [Compound 85, 5-(4-chlorobenzylidene)-1-methyl-3-(3-morpholinopropyl)-2-selenoxoimidazolidine-4-on]
- IC50 [1]: 5 µM

SMILES: CN1C(=[Se])N(CCCCCCF)C(=O)/C1=C\c1cc(O)cc(O)c1 [Compound 88]
- IC50 [1]: 18 µM

SMILES: CN1C(=[Se])N(CCCCCF)C(=O)/C1=C\c1ccc(O)cc1O [Compound 89, 5-(2,4-dihydroxybenzylidene)-3-(5-fluoropentyl)-1-methyl-2-selenoxoimidazolidine-4-on]
- IC50 [1]: 13 µM

SMILES: CCCCCN1C(=O)/C(=C\c2ccc(O)cc2O)N(C)C1=[Se] [Compound 93, 5-(2,4-dihydroxybenzylidene)-1-methyl-3-pentyl-2-selenoxoimidazolidine-4-on]
- IC50 [1]: 2.9 µM

SMILES: CCN1C(=[Se])N(c2ccccc2)C(=O)/C1=C\c1ccc(O)cc1O [Compound 95, 5-(2,4-dihydroxybenzylidene)-1-ethyl-3-phenyl-2-selenoxoimidazolidine-4-on]
- IC50 [1]: 22 µM

SMILES: CCN1C(=[Se])N(c2ccccc2)C(=O)/C1=C\c1cccc(O)c1O [Compound 96, 5-(2,3-dihydroxybenzylidene)-1-ethyl-3-phenyl-2-selenoxoimidazolidine-4-on]
- IC50 [1]: 44 µM

SMILES: CCc1ccc(N2C(=O)/C(=C\c3ccc(Br)cc3)N(CC)C2=[Se])cc1 [Compound 101, 5-(4-bromobenzylidene)-1-ethyl-3-(4-ethylphenyl)-2-selenoxoimidazolidine-4-on]
- IC50 [1]: 45 µM

SMILES: CCc1ccc(N2C(=O)/C(=C\c3ccc(N4CCCC4)cc3)N(CC)C2=[Se])cc1 [Compound 102, 1-ethyl-3-(4-ethylphenyl)-5-(4-pyrrolidine-1-yl)benzylidene-2-selenoxoimidazolidine-4-on]
- IC50 [1]: 40 µM

SMILES: O=C1/C(=C\c2cccc(O)c2O)N(Cc2ccccc2)C(=[Se])N1c1ccccc1 [Compound 104, 1-benzyl-5-(2,3-dihydroxybenzylidene)-3-phenyl-2-selenoxoimidazolidine-4-on]
- IC50 [1]: 23 µM

SMILES: O=C1/C(=C\c2ccc(O)c(O)c2)N(Cc2ccccc2)C(=[Se])N1c1ccccc1 [Compound 106, 1-benzyl-5-(3,4-dihydroxybenzylidene)-3-phenyl-2-selenoxoimidazolidine-4-on]
- IC50 [1]: 34 µM

SMILES: O=C1/C(=C\c2cc(O)cc(O)c2)N(Cc2ccccc2)C(=[Se])N1c1ccccc1 [Compound 107, 1-benzyl-5-(3,5-dihydroxybenzylidene)-3-phenyl-2-selenoxoimidazolidine-4-on]
- IC50 [1]: 23 µM

SMILES: CCc1ccc(N2C(=O)/C(=C\c3ccc(O)cc3O)N(Cc3ccccc3)C2=[Se])cc1 [Compound 108, 1-benzyl-5-(2,4-dihydroxybenzylidene)-3-(4-ethylphenyl)-2-selenoxoimidazolidine-4-on]
- IC50 [1]: 22 µM

SMILES: CCc1ccc(N2C(=O)/C(=C\c3ccc(O)c(O)c3)N(Cc3ccccc3)C2=[Se])cc1 [Compound 109, 1-benzyl-5-(3,4-dihydroxybenzylidene)-3-(4-ethylphenyl)-2-selenoxoimidazolidine-4-on]
- IC50 [1]: 29 µM

SMILES: CCc1ccc(N2C(=O)/C(=C\c3cc(O)cc(O)c3)N(Cc3ccccc3)C2=[Se])cc1 [Compound 110, 1-benzyl-5-(3,5-dihydroxybenzylidene)-3-(4-ethylphenyl)-2-selenoxoimidazolidine-4-on]
- IC50 [1]: 23 µM

SMILES: O=C1/C(=C\c2cccc(O)c2O)N(Cc2ccccc2)C(=[Se])N1c1ccc(Cl)cc1 [Compound 111, 1-benzyl-3-(4-chlorophenyl)-5-(2,3-dihydroxybenzylidene)-2-selenoxoimidazolidine-4-on]
- IC50 [1]: 26 µM

SMILES: O=C1/C(=C\c2ccc(O)c(O)c2)N(Cc2ccccc2)C(=[Se])N1c1ccc(Cl)cc1 [Compound 112, 1-benzyl-3-(4-chlorophenyl)-5-(3,4-dihydroxybenzylidene)-2-selenoxoimidazolidine-4-on]
- IC50 [1]: 31 µM
